Data as given in US20260042731A1, “(2,4-DICHLOROPHENOXY)ACETIC ACID ANALOGS” (CORTEVA AGRISCIENCE LLC, priority 2022, published 2026).
Like-named read-outs stand apart in the source and are kept apart here.

How the values were obtained:
[1] = tested on: glyphosate resistant Conyza canadensis (L.) (ERICA), horseweed; test: Postemergence herbicide evaluation, growth of Conyza canadensis (ERICA); assay type: in vivo; settings: Erigeron canadensis, post-emergence, read-out: Ave. ERICA
[2] = tested on: Abutilon theophrasti (ABUTH), velvetleaf; test: Postemergence herbicide evaluation, growth of Abutilon theophrasti (ABUTH); assay type: in vivo; settings: Abutilon theophrasti, post-emergence, read-out: AVE. ABUTH
[3] = Volatility of compounds measured by thermogravimetric analysis (TGA); assay type: physicochemical
[4] = tested on: Ambrosia artemisiifolia (AMBEL), common ragweed; test: Postemergence herbicide evaluation, growth of Ambrosia artemisiifolia (AMBEL); assay type: in vivo; settings: Ambrosia artemisiifolia, post-emergence, read-out: AVE. AMBEL
[5] = tested on: Amaranthus rudis (AMATA), tall water hemp; test: Postemergence herbicide evaluation, growth of Amaranthus rudis (AMATA); assay type: in vivo; settings: Amaranthus tuberculatus, post-emergence, read-out: Ave. AMATA
[6] = tested on: weeds (ABUTH, AMATA, AMBEL, CHEAL, ERICA); test: Postemergence herbicide evaluation, overall average % weed control across ABUTH, AMATA, AMBEL, CHEAL, ERICA; assay type: in vivo; settings: post-emergence, read-out: Overall Ave % Weed Control
[7] = tested on: Chenopodium album (CHEAL), common lambsquarters; test: Postemergence herbicide evaluation, growth of Chenopodium album (CHEAL); assay type: in vivo; settings: Chenopodium album, post-emergence, read-out: Ave. CHEAL
[8] = 168 h, 280 g ae/ha, 7 DAA, percent reduction in plant size relative to untreated control
[9] = 168 h, 560 g ae/ha, 7 DAA, percent reduction in plant size relative to untreated control
[10] = 336 h, 280 g ae/ha, 14 DAA, percent reduction in plant size relative to untreated control
[11] = 336 h, 560 g ae/ha, 14 DAA, percent reduction in plant size relative to untreated control
[12] = 504 h, 280 g ae/ha, 21 DAA, percent reduction in plant size relative to untreated control
[13] = 504 h, 560 g ae/ha, 21 DAA, percent reduction in plant size relative to untreated control

Compound: N#C/C(=N\OC(=O)COc1ccc(Cl)cc1Cl)c1ccccc1 [Compound A6, N-(2-(2,4-Dichlorophenoxy)acetoxy)benzimidoyl cyanide]
- pest or weed control at 280 g/ha ([1]; 168 h): 65%
- pest or weed control at 560 g/ha ([1]; 168 h): 73%
- pest or weed control at 280 g/ha ([1]; 336 h): 88%
- pest or weed control at 560 g/ha ([1]; 336 h): 88%
- pest or weed control at 280 g/ha ([1]; 504 h): 98%
- pest or weed control at 560 g/ha ([1]; 504 h): 98%
- pest or weed control at 280 g/ha ([2]; 168 h): 78%
- pest or weed control at 560 g/ha ([2]; 168 h): 90%
- pest or weed control at 280 g/ha ([2]; 336 h): 75%
- pest or weed control at 560 g/ha ([2]; 336 h): 85%
- pest or weed control at 280 g/ha ([2]; 504 h): 80%
- pest or weed control at 560 g/ha ([2]; 504 h): 94%
- TGA Data (rate of weight loss, volatility) [3]: 7.2 µg/min
- pest or weed control at 280 g/ha ([4]; 168 h): 68%
- pest or weed control at 560 g/ha ([4]; 168 h): 70%
- pest or weed control at 280 g/ha ([4]; 336 h): 93%
- pest or weed control at 560 g/ha ([4]; 336 h): 95%
- pest or weed control at 280 g/ha ([4]; 504 h): 98%
- pest or weed control at 560 g/ha ([4]; 504 h): 100%
- pest or weed control at 280 g/ha ([5]; 168 h): 80%
- pest or weed control at 560 g/ha ([5]; 168 h): 75%
- pest or weed control at 280 g/ha ([5]; 336 h): 83%
- pest or weed control at 560 g/ha ([5]; 336 h): 78%
- pest or weed control at 280 g/ha ([5]; 504 h): 73%
- pest or weed control at 560 g/ha ([5]; 504 h): 81%
- pest or weed control at 280 g/ha ([6]; 168 h): 72%
- pest or weed control at 560 g/ha ([6]; 168 h): 75%
- pest or weed control at 280 g/ha ([6]; 336 h): 84%
- pest or weed control at 560 g/ha ([6]; 336 h): 84%
- pest or weed control at 280 g/ha ([6]; 504 h): 88%
- pest or weed control at 560 g/ha ([6]; 504 h): 89%
- pest or weed control at 280 g/ha ([7]; 168 h): 68%
- pest or weed control at 560 g/ha ([7]; 168 h): 68%
- pest or weed control at 280 g/ha ([7]; 336 h): 83%
- pest or weed control at 560 g/ha ([7]; 336 h): 78%
- pest or weed control at 280 g/ha ([7]; 504 h): 94%
- pest or weed control at 560 g/ha ([7]; 504 h): 73%

Compound: CS/C(C)=N\OC(=O)COc1ccc(Cl)cc1Cl [Compound A10, Methyl N-2-(2,4-dichlorophenoxy)acetoxyethanimidothioate]
- pest or weed control at 280 g/ha [1, 8]: 63%
- pest or weed control at 560 g/ha [1, 9]: 68%
- pest or weed control at 280 g/ha [1, 10]: 85%
- pest or weed control at 560 g/ha [1, 11]: 83%
- pest or weed control at 280 g/ha [1, 12]: 93%
- pest or weed control at 560 g/ha [1, 13]: 94%
- pest or weed control at 280 g/ha [2, 8]: 83%
- pest or weed control at 560 g/ha [2, 9]: 88%
- pest or weed control at 280 g/ha [2, 10]: 90%
- pest or weed control at 560 g/ha [2, 11]: 92%
- pest or weed control at 280 g/ha [2, 12]: 98%
- pest or weed control at 560 g/ha [2, 13]: 94%
- TGA Data (rate of weight loss, volatility) [3]: 0.6 µg/min
- pest or weed control at 280 g/ha [4, 8]: 70%
- pest or weed control at 560 g/ha [4, 9]: 75%
- pest or weed control at 280 g/ha [4, 10]: 85%
- pest or weed control at 560 g/ha [4, 11]: 92%
- pest or weed control at 280 g/ha [4, 12]: 100%
- pest or weed control at 560 g/ha [4, 13]: 96%
- pest or weed control at 280 g/ha [5, 8]: 80%
- pest or weed control at 560 g/ha [5, 9]: 78%
- pest or weed control at 280 g/ha [5, 10]: 80%
- pest or weed control at 560 g/ha [5, 11]: 73%
- pest or weed control at 280 g/ha [5, 12]: 78%
- pest or weed control at 560 g/ha [5, 13]: 83%
- pest or weed control at 280 g/ha ([6]; 168 h, 280 g ae/ha, 7 DAA, average over the five weeds): 72%
- pest or weed control at 560 g/ha ([6]; 168 h, 560 g ae/ha, 7 DAA, average over the five weeds): 76%
- pest or weed control at 280 g/ha ([6]; 336 h, 280 g ae/ha, 14 DAA, average over the five weeds): 83%
- pest or weed control at 560 g/ha ([6]; 336 h, 560 g ae/ha, 14 DAA, average over the five weeds): 84%
- pest or weed control at 280 g/ha ([6]; 504 h, 280 g ae/ha, 21 DAA, average over the five weeds): 90%
- pest or weed control at 560 g/ha ([6]; 504 h, 560 g ae/ha, 21 DAA, average over the five weeds): 84%
- pest or weed control at 280 g/ha [7, 8]: 65%
- pest or weed control at 560 g/ha [7, 9]: 70%
- pest or weed control at 280 g/ha [7, 10]: 75%
- pest or weed control at 560 g/ha [7, 11]: 83%
- pest or weed control at 280 g/ha [7, 12]: 83%
- pest or weed control at 560 g/ha [7, 13]: 53%
